In brackets after ≈: the same amount, converted by molar mass.

Assay [1] concerns the target T1, SaSecA1 (Staphylococcus aureus, UniProt O06446).
T1 sequence (O06446 1-843): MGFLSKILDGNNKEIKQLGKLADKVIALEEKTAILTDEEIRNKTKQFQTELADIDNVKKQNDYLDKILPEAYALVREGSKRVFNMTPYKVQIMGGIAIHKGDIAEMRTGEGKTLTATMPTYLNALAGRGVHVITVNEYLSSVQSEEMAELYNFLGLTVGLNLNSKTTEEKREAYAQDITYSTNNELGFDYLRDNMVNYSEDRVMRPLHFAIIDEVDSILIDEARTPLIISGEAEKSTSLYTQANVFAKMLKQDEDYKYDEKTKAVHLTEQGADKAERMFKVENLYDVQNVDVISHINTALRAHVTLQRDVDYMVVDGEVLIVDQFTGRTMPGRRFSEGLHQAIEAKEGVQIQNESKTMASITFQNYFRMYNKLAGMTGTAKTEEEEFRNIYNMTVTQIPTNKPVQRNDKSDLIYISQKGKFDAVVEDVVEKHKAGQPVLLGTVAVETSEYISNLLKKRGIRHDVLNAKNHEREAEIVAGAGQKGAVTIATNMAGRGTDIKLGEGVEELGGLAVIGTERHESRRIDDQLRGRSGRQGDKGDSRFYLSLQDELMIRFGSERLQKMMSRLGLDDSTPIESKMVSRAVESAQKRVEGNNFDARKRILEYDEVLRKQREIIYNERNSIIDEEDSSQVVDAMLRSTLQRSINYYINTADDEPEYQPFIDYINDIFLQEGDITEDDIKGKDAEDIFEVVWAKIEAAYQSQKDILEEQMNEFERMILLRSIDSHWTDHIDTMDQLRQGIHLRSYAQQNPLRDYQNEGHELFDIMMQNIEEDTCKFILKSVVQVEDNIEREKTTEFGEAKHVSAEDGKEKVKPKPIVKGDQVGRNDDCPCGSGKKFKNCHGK
In words: Protein pull down assay from whole cell lysate. Type of assay: binding. The note with it: 400 µM, S. aureus ATCC 6538 lysate, Streptavidin magnetic beads, Western blot.

Assay [2] relates to S. aureus Mu50. In words: Bacteriostatic effect. In kind it is cell-based. The note with it: for MIC fold higher than that of SCA-50: S. aureus Mu50.
Assay [3] deals with S. aureus NorA and MepA efflux pump strains. In kind it is cell-based. The note with it: confirmed by MIC, Table 3.
Assay [4] has as its target T1, SaSecA1. Type of assay: biochemical. Conditions: liposomes-oocytes, different concentrations of ATP.
A further assay has as its system S. aureus ATCC 6538. Put plainly: Effects of light on bactericidal result. The note with it: 40 µM, 2 hr, dark vs light. In kind it is cell-based.
The test system of assay [5] is secretion of α-hemolysin, enterotoxin B, and TSST-1 by S. aureus Mu50. In kind it is cell-based.
Assay [6] relates to S. aureus Mu50. Type of assay: cell-based. Conditions: 10 µM, mid-log phase (OD600 ≈ 2.6), first 15 hr.

For the compound `O=C(CCCC[C@@H]1SC[C@@H]2NC(=O)N[C@@H]21)NCCCCCCC1c2ccc(O)cc2Oc2cc(O)ccc21` [SCA-254], the “pull down of SaSecA1 from whole cell lysates” value at SaSecA1 [1] is “could recognize and pull down SaSecA1”. Regarding polymyxin B [Polymxin B], the “Bacteriostatic effect MIC, S. aureus Mu50 (comparison with antibiotics)” value in the assay on S. aureus Mu50 [2] (Table 2, n = 6) is 31 µg/mL. Consider `CO[C@H]1/C=C/O[C@@]2(C)Oc3c(C)c(O)c4c(O)c(c(/C=N/N5CCN(C)CC5)c(O)c4c3C2=O)NC(=O)/C(C)=C\C=C\[C@H](C)[C@H](O)[C@@H](C)[C@@H](O)[C@@H](C)[C@H](OC(C)=O)[C@@H]1C` [Rifampicin], for which, in the assay with S. aureus Mu50 [2], the “MIC fold higher than that of SCA-50” value is listed as 250 fold. With `CC1(C)S[C@@H]2[C@H](NC(=O)[C@H](N)c3ccccc3)C(=O)N2[C@H]1C(=O)O` [Ampicillin], the “MIC fold higher than that of SCA-50” value in the assay with S. aureus Mu50 [2] is listed as 250 fold. On to `CC[C@H]1OC(=O)[C@H](C)[C@@H](O[C@H]2C[C@@](C)(OC)[C@@H](O)[C@H](C)O2)[C@H](C)[C@@H](O[C@@H]2O[C@H](C)C[C@H](N(C)C)[C@H]2O)[C@](C)(O)C[C@@H](C)C(=O)[C@H](C)[C@@H](O)[C@]1(C)O` [Erythromycin], for which the “MIC fold higher than that of SCA-50” value against S. aureus Mu50 [2] worked out at 250 fold. In the case of `O=C([O-])c1c(Cl)c(Cl)c(Cl)c(Cl)c1-c1c2cc(I)c(=O)c(I)c-2oc2c(I)c([O-])c(I)cc12.[Na+].[Na+]` [RB, Rose Bengal], the “substrate of NorA efflux pump” value in assay [3] is listed as “substrate of NorA”. `NC[C@H]1O[C@H](O[C@H]2[C@H](O)[C@@H](O[C@H]3O[C@H](CO)[C@@H](O)[C@H](N)[C@H]3O)[C@H](N)C[C@@H]2N)[C@H](O)[C@@H](O)[C@@H]1O` [Kanamycin]: the “MIC fold higher than that of SCA-50” value in the assay with S. aureus Mu50 [2] was found to be 250 fold. For the compound `CCCCCCC1c2ccc(O)cc2Oc2cc(O)ccc21` [SCA-50], the “manner of inhibition of translocation related ATPase activity of SaSecA1” value on SaSecA1 [4] was “non-competitive”. Also, the MIC in the assay with S. aureus Mu50 [2] (Staphylococcus aureus, MU50, read-out: MIC against S. aureus Mu50) came out at 12.5 µM (≈ 3.73 µg/mL). In addition, the “effect of light on bactericidal effects” value with S. aureus ATCC 6538 is “not obviously affected by light”. In assay [5], the “amount of TSST-1 in the supernatant” value is reported as “significantly decreased”, the “amount of enterotoxin B in the supernatant” value was “significantly decreased” and the “amount of α-hemolysin in the supernatant” value is “significantly decreased”. Besides, the “amount of extracellular proteins in the supernatant” value in assay [5] (10 µM) is given as “reduced the amount of many extracellular proteins”. The “OD600 reading compared with control” value in the assay with S. aureus Mu50 [6] was “didn’t obviously change”. For the compound `CN[C@@H](CC(C)C)C(=O)N[C@H]1C(=O)N[C@@H](CC(N)=O)C(=O)N[C@H]2C(=O)N[C@H]3C(=O)N[C@H](C(=O)N[C@@H](C(=O)O)c4cc(O)cc(O)c4-c4cc3ccc4O)[C@H](O)c3ccc(c(Cl)c3)Oc3cc2cc(c3O[C@H]2O[C@@H](CO)[C@H](O)[C@@H](O)[C@@H]2O[C@@H]2C[C@@](C)(N)[C@@H](O)[C@@H](C)O2)Oc2ccc(cc2Cl)[C@H]1O` [Vancomycin], the “MIC fold higher than that of SCA-50” value with S. aureus Mu50 [2] was “two-fold higher”.

Source of the values: article PMC4661110 (Bioorganic & medicinal chemistry, 2015).
